Assay results taken from US9247740B2, “Isoxazoline derivatives as insecticidal compounds” (Syngenta Participations AG, priority 2011, dated 2016).

Experiments:
Type in all cases: in vivo
[1] = test system: Spodoptera littoralis (Egyptian Cotton Leafworm); assay: Spodoptera littoralis leaf disc spray test; conditions: foliar, 72 h, 200 ppm spray on cotton leaf discs, mortality, feeding behavior, growth regulation 3 days after treatment
Description: This Example illustrates the insecticidal and acaricidal properties of compounds of formula (I). Tests were performed as follows:

[2] = test system: Heliothis virescens (Tobacco Budworm); assay: Heliothis virescens egg test on artificial diet; conditions: 96 h, 200 ppm (concentration in well 18 ppm), eggs 0-24 h old on artificial diet, egg mortality, larval mortality, growth regulation after 4 days
Excerpt: (§1) This Example illustrates the insecticidal and acaricidal properties of compounds of formula (I).

[3] = test system: Plutella xylostella (Diamond Back Moth); assay: Plutella xylostella larval test on artificial diet; conditions: 144 h, 200 ppm (concentration in well 18 ppm), L2 larvae, larval mortality and growth regulation after 6 days
Excerpt: as §1

[4] = test system: Diabrotica balteata (Corn Root Worm); assay: Diabrotica balteata larval test on artificial diet; conditions: 120 h, 200 ppm (concentration in well 18 ppm), L2 larvae, larval mortality and growth regulation after 5 days
Excerpt: as §1

[5] = test system: Thrips tabaci (Onion Thrips); assay: Thrips tabaci leaf disc spray test; conditions: foliar, 168 h, 200 ppm spray on sunflower leaf discs, mixed ages, mortality after 7 days
Excerpt: as §1

[6] = test system: Tetranychus urticae (Two-Spotted Spider Mite); assay: Tetranychus urticae leaf disc spray test; conditions: foliar, 192 h, 200 ppm spray on bean leaf discs, mixed ages, egg, larval and adult mortality 8 days later
Excerpt: as §1

Measured: pest or weed control at 200 ppm

Cc1cc(C2=NO[C@@](c3cc(Cl)cc(Cl)c3)(C(F)(F)F)C2)ccc1C(=O)NCC1CS(=O)(=O)C1 [Compound C20, 4-[(5S)-5-(3,5-dichlorophenyl)-5-(trifluoromethyl)-4H-isoxazol-3-yl]-N-[(1,1-dioxothietan-3-yl)methyl]-2-methyl-benzamide]
≥ 80%: all assays above
